As usually defined, the AC50 is the midpoint of the concentration-response curve, whichever way the signal moves. For orientation: IC50 means the midpoint of a concentration-inhibition curve.

Data set [1] relates to HTT mRNA. Kind of data set: RT-qPCR splicing assay, HTT mRNA canonical (CJ) and alternative (AJ) junction. In kind it is cell-based, human. To be noted: Homo sapiens; for AC50: HTT alternative junction mRNA, read-out: HTT AJ (increase in AJ mRNA, AC50). The method, boiled down: (§1)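 A673 or K562 cells treated 24 h at 37 °C with an 11-point 3-fold dilution series (top 10 uM, DMSO ≤0.25%). Lysates went directly to one-step RT-qPCR quantifying canonical (CJ) and alternative-exon (AJ) junctions, normalized to GAPDH, GUSB or PPIA. Values from ΔΔCt versus DMSO, RQ = 2^(−ΔΔCt), expressed as percentage response.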
A general note: Real-time PCR tracks product formation cycle by cycle.

The test system of data set [2] is MYB mRNA. Kind of data set: RT-qPCR splicing assay, MYB mRNA canonical (CJ) and alternative (AJ) junction. In kind it is cell-based, human. To be noted: Homo sapiens; for AC50: MYB alternative junction mRNA, read-out: MYB AJ (increase in AJ mRNA, AC50). The gist of the method: as §1
Data set [3] concerns SMN2 mRNA. Kind of data set: RT-qPCR splicing assay, SMN2 mRNA. It is filed as cell-based, human. Particulars: Homo sapiens, canonical junction qPCR panel, Table 4; read-out: SMN2 IC50 (decrease in CJ mRNA levels). The gist of the method: as §1
The subject of data set [4] is MYB. Description: HiBiT protein abundance assay, MYB (K562 HiBiT knock-in). In kind it is cell-based, human. Particulars: HiBiT knock-in K562 cells, 24 hours, top dose 10 μM. The method, boiled down:
(§2)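 Tagged-protein levels were measured as HiBiT/LgBiT luminescence in lysed K562 knock-in cells exposed to serially diluted compound (up to 10 μM final) for 24 hours. A four-parameter logistic regression of control-normalized signal yielded the IC50.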
(In general: The HiBiT peptide binds its large partner to form an active luciferase.)

For data set [5], the system named is HTT. Description: HiBiT protein abundance assay, HTT (K562 HiBiT knock-in). It is filed as cell-based, human. Particulars: HiBiT knock-in K562 cells, 24 hours, top dose 10 μM. The method, boiled down:
as §2

Data set [6] relates to Target C. Description: HiBiT protein abundance assay, Target C (K562 HiBiT knock-in). In kind it is cell-based, human. Particulars: HiBiT knock-in K562 cells, 24 hours, top dose 10 μM. The gist of the method:
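K562 HiBiT knock-in cells (10000/well) were treated 24 h at 37° C with a 10-point 3-fold dilution series (top 10 μM final, ≤0.25% DMSO). HiBiT luminescence was read after lytic LgBiT detection. Percent response used unmodified K562 and DMSO-treated knock-in controls, and IC50 came from a four-parameter fit at 50% of untreated.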

Data set [7] deals with K562 cells. Kind of data set: Cell Titer Glo 2.0 cell viability (toxicity) assay, K562. To be noted: 500 cells/well, 72 hours. In general terms: In ATP-based viability assays light output follows the ATP content of the culture.
[8] abbreviates: HTT canonical junction mRNA, RT-qPCR, read-out: HTT CJ (decrease in CJ mRNA levels, IC50).
The mark [9] stands for this setting: canonical junction qPCR panel, Table 4, read-out: HTT IC50 (decrease in CJ mRNA levels).
Where [10] appears, read: MYB canonical junction mRNA, RT-qPCR, read-out: MYB CJ (decrease in CJ mRNA levels, IC50).
Setting [11] is: canonical junction qPCR panel, Table 4, read-out: MYB IC50 (decrease in CJ mRNA levels).

Like-named read-outs stand apart in the source and are kept apart here. Some results are limits rather than exact numbers.

With `Cc1cn2cc(-c3ccc4nc(C5CCNCC5)ccc4n3)c(O)cc2n1` [Compound 149], the concentration at half-maximal activity (AC50) in data set [1] (RT-qPCR) and in data set [2] (RT-qPCR) was over 10000 nM in each case. The half-maximal inhibitory concentration (IC50) was over 10000 nM in data set [1] (setting [8]); over 10000 nM in data set [1] (setting [9]); 1000 to 10000 nM in data set [2] (setting [10]); 1000 to 10000 nM in data set [2] (setting [11]); 100 to 1000 nM in data set [3]; 1000 to 10000 nM in data set [4]. Further, the IC50 in data set [5] was 1000 to 10000 nM; in data set [6], over 10000 nM. The “Effect of Exemplary Compounds on Cell Viability, K562” value (“Effect of Exemplary Compounds” for short) in data set [7] is recorded as “C (C represents 1000-9999 nM)”.

Regarding `Cc1cn2nc(-c3ccc4nc(C5CCNCC5)ccc4n3)c(O)c2c(C)n1` [Compound 150], the AC50 in data set [1] (RT-qPCR) and in data set [2] (RT-qPCR) was under 100 nM in each case. The IC50 in data set [1] (setting [8]), in data set [1] (setting [9]), in data set [2] (setting [10]), in data set [2] (setting [11]), in data set [3] and in data set [4] was under 100 nM each time. The IC50 in data set [5] and in data set [6] was under 100 nM throughout. Besides, in data set [7], the “Effect of Exemplary Compounds” value is recorded as “A (A represents <100 nM)”.

`c1c[nH]c(-c2ccc3nc(C4CCNCC4)ccc3n2)n1` [Compound 152]: the AC50 in data set [1] (RT-qPCR) and in data set [2] (RT-qPCR) was over 10000 nM each time. Besides, the IC50 was over 10000 nM in data set [1] (setting [8]); over 10000 nM in data set [1] (setting [9]); over 10000 nM in data set [2] (setting [10]); over 10000 nM in data set [2] (setting [11]); 1000 to 10000 nM in data set [3]; over 10000 nM in data set [4]. In addition, the half-maximal inhibitory concentration (IC50) in data set [5] and in data set [6] was over 10000 nM each time. Also, the “Effect of Exemplary Compounds” value in data set [7] is given as “D (D represents greater than 10 μM in K562 cells)”.

Regarding `Cn1cc2cc(-c3ccc4nc(N5CC[C@@H](NC(C)(C)C)C5)ccc4n3)c(O)cc2n1` [Compound 153], the AC50 in data set [1] (RT-qPCR) and in data set [2] (RT-qPCR) was under 100 nM in each case. Moreover, the half-maximal inhibitory concentration (IC50) in data set [1] (setting [8]), in data set [1] (setting [9]), in data set [2] (setting [10]), in data set [2] (setting [11]), in data set [3] and in data set [4] was under 100 nM in each case. Further, the half-inhibitory concentration (IC50) in data set [5] and in data set [6] was under 100 nM in each case. Further, the “Effect of Exemplary Compounds” value in data set [7] is reported as “B (B represents 100-1000 nM)”.

Take `Cn1cc2cc(-c3ccc4nc(N5CC[C@H](NC(C)(C)C)C5)ccc4n3)c(O)cc2n1` [Compound 154]: the AC50 in data set [1] (RT-qPCR) and in data set [2] (RT-qPCR) was under 100 nM throughout. Further, the IC50 in data set [1] (setting [8]) is under 100 nM; in data set [1] (setting [9]), under 100 nM; in data set [2] (setting [10]), 100 to 1000 nM; in data set [2] (setting [11]), 100 to 1000 nM; in data set [3], under 100 nM; in data set [4], under 100 nM. Moreover, the half-maximal inhibitory concentration (IC50) in data set [5] and in data set [6] was under 100 nM throughout. The “Effect of Exemplary Compounds” value in data set [7] was “A (A represents <100 nM)”.

As to `Cn1cc2cc(-c3ccc4nc(N5CC[C@@H](NC6CCC6)C5)ccc4n3)c(O)cc2n1` [Compound 157], the concentration at half-maximal activity (AC50) in data set [1] (RT-qPCR) and in data set [2] (RT-qPCR) was under 100 nM throughout. Further, the IC50 in data set [1] (setting [8]), in data set [1] (setting [9]), in data set [2] (setting [10]), in data set [2] (setting [11]), in data set [3] and in data set [4] was under 100 nM in each case. For the same compound, the IC50 was under 100 nM in data set [5] and 100 to 1000 nM in data set [6]. Besides, in data set [7], the “Effect of Exemplary Compounds” value is given as “B (B represents 100-1000 nM)”.

Consider `Cn1cc2cc(-c3ccc4nc(N5CCC(NC6CC6)C5)ccc4n3)c(O)cc2n1` (centres unmarked) [Compound 158], for which the half-maximal activity concentration (AC50) in data set [1] (RT-qPCR) and in data set [2] (RT-qPCR) was under 100 nM in each case. Besides, the concentration for half-maximal inhibition (IC50) in data set [1] (setting [8]), in data set [1] (setting [9]), in data set [2] (setting [10]), in data set [2] (setting [11]), in data set [3] and in data set [4] was under 100 nM in each case. Besides, the concentration for half-maximal inhibition (IC50) is under 100 nM in data set [5] and 100 to 1000 nM in data set [6]. In addition, the “Effect of Exemplary Compounds” value in data set [7] is given as “B (B represents 100-1000 nM)”.

Source of the values: patent US20250092065A1, “2-(INDAZOL-5-YL)-6-(PIPERIDIN-4-YL)-1,7-NAPHTHYRIDINE DERIVATIVES AND RELATED COMPOUNDS AS MODULATORS FOR SPLICING NUCLEIC ACIDS AND FOR THE TREATMENT OF PROLIFERATIVE DISEASES” (REMIX THERAPEUTICS INC., priority 2022, published 2025).
